In article PMC7822030, “Hybrid Inhibitors of DNA Gyrase A and B: Design, Synthesis and Evaluation” (Pharmaceutics, 2020):
Read-outs that look alike come from different tables or passages of the source.

Experiments:
K. pneumoniae ATCC 10031 = test: MIC broth microdilution, K. pneumoniae; format: cell-based; details: Klebsiella pneumoniae, ATCC10031, read-out: MIC K. pneumoniae ATCC #
From the text: (§1) E. coli MG1655 originated from the laboratory collection of Dr. Csaba Pál. […] E. coli K-12 BW25113 single-gene knockout mutant lines ΔdapF, ΔmrcB, ΔsurA, ΔacrB and ΔtolC originated form the Keio collection copy owned by the laboratory of Dr. Csaba Pál.
(§2) Cation-adjusted Mueller Hinton II broth (MHBII) was used for growth of the bacteria under standard laboratory conditions, for antimicrobial susceptibility tests, and for selection of resistant variants. To prepare the MHBII broth, 22 g MHBII powder (containing 3 g beef extract, 17.5 g acid hydrolysate of casein, 1.5 g starch; Becton, Dickinson and Co., Franklin Lakes, NJ, USA) was dissolved in 1 L water. MHBII agar was prepared by addition of 14 g agar (Bacto; Molar Chemicals, Halásztelek, Hungary) to 1 L broth.
(§3) Minimum inhibitory concentrations (MICs) were determined using a standard serial broth microdilution technique, according to the Clinical and Laboratory Standards Institute guidelines. […] For Enterococcus sp., the cells were plated in BHI agar plates, and BHI broth was used to determine the MICs. […] Following the dilutions, each well was seeded with 5 × 10^4 bacterial cells. Each measurement was performed in three parallel replicates, and to avoid possible edge effects in the microwell plates, the outside rows (A, H) were filled with sterile medium. Following the inoculations, the plates were covered with the lids and wrapped in polyethylene plastic bags, to minimize evaporation but to allow O2 transfer. […] After incubation, the OD600 of each well was measured using a microplate reader (Synergy 2; Biotek, Winooski, VT, USA).

[1] = tested on: E. cloacae spp. cloacae ATCC 13047; test: MIC broth microdilution, E. cloacae; format: cell-based, Enterobacter cloacae; details: Enterobacter cloacae, ATCC13047, read-out: MIC E. cloacae spp. cloacae ATCC #
[2] = tested on: E. coli MG1655 GyrB R136C; test: microbe, parasite or virus in culture; format: cell-based, Escherichia coli
From the text: as §1, §2, §3
(§4) These mutated amino acids are the most common sites for target-based resistance in E. coli.

[3] = tested on: E. coli MG1655 GyrA S83L, D87N ParC S80I, E84G; test: microbe, parasite or virus in culture; format: cell-based, Escherichia coli
From the text: as §1, §2, §3, §4

E. coli ATCC 25922 = test: MIC broth microdilution, E. coli ATCC 25922; format: cell-based; details: Escherichia coli, ATCC25922, read-out: MIC E. coli ATCC #
From the text: as §1, §2, §3

E. coli BW25113 WT = test: MIC, E. coli BW25113 wild-type; format: cell-based; details: Escherichia coli, BW25113, read-out: Minimum Inhibitory Concentration E. coli BW# WT
From the text: as §1, §2, §3

A. baumannii ATCC 17978 = test: MIC broth microdilution, A. baumannii; format: cell-based; details: Acinetobacter baumannii, ATCC17978, read-out: MIC A. baumannii ATCC #
From the text: as §1, §2, §3

E. coli BW25113 ΔmrcB = format: cell-based, Escherichia coli
From the text: as §1, §2, §3

E. coli BW25113 ΔsurA = format: cell-based, Escherichia coli
From the text: as §1, §2, §3

E. coli BW25113 ΔtolC = format: cell-based, Escherichia coli
From the text: as §1, §2, §3

E. coli BW25113 ΔdapF = format: cell-based, Escherichia coli
From the text: as §1, §2, §3

E. coli BW25113 ΔacrB = format: cell-based, Escherichia coli
From the text: as §1, §2, §3

E. coli MG1655 WT = test: MIC, E. coli MG1655 wild-type with PAβN; format: cell-based, Escherichia coli
From the text: as §1, §2
as §3, with “USA). […]” for “USA).”

E. coli DNA gyrase = target: T1, E. coli DNA gyrase (Escherichia coli, UniProt P0AES4+P0AES6); test: E. coli DNA gyrase supercoiling assay; format: biochemical
T1 construct: purchased Inspiralis, Norwich, UK
Procedure: (§5) The assay for determination of the IC50 values was performed according to previously reported procedures.
(§6) Briefly, inhibitory activities were determined using supercoiling (for DNA gyrase) and relaxation (for topoisomerase IV) assay kits (Inspiralis, Norwich, UK) on streptavidin-coated 96-well microtiter plates from Thermo Scientific Pierce (Thermo Fisher Scientific, Waltham, MA, USA). First, the plates were rehydrated with Wash Buffer and the biotinylated oligonucleotide TFO1 was then immobilized. After washing off the unbound oligonucleotide with Wash Buffer, the enzyme assay was performed. Into each well was added 24 µL of mixture containing 6 µL of Assay Buffer (containing ATP), 0.75 µL of relaxed (for E. coli DNA gyrase supercoiling assay) or supercoiled (for E. coli topoisomerase IV relaxation assay) pNO1 plasmid and 17.25 µL of water. Additionally, 3 µL of a solution of the inhibitor in 10% DMSO containing 0.008% Tween 20 and 3 µL of enzyme (1.5 U) in Dilution Buffer were also added to the wells. […] The TF buffer was added to terminate the enzymatic reaction and after additional incubation for 30 min at room temperature, which allowed for triplex formation (biotin–oligonucleotide–plasmid), the unbound plasmid was washed off using TF buffer. Promega Diamond dye in T10 buffer was then added. […] Here, the compounds were diluted using 2-fold serial dilution steps of the given compound. GraphPad Prism 6.0 software was used to calculate the IC50 values, which were determined in at least two independent measurements, and their means are given as the final result. […] Dose-response curves can be found in Supplementary Materials.

P. aeruginosa ATCC 27863 = test: MIC broth microdilution, P. aeruginosa; format: cell-based; details: Pseudomonas aeruginosa
From the text: as §1, §2, §3

E. coli topoisomerase IV = target: T2, E. coli topoisomerase IV (Escherichia coli, UniProt P0AFI2+P20083); test: E. coli topoisomerase IV relaxation assay; format: biochemical
T2 construct: purchased Inspiralis, Norwich, UK
Procedure: as §5, §6

[4] = molar conversion in parentheses
[5] = in the presence of 50 µg/mL PAβN

Cc1[nH]c(C(=O)Nc2nc3ccc(C(=O)NCCOCCN4CCN(c5cc6c(cc5F)c(=O)c(C(=O)O)cn6C5CC5)CC4)cc3s2)c(Cl)c1Cl.Cl [Compound 11a, 4-(3-Carboxy-1-cyclopropyl-6-fluoro-4-oxo-1,4-dihydroquinolin-7-yl)-1-(2-(2-(2-(3,4-dichloro-5-methyl-1H-pyrrole-2-carboxamido)benzo[d]thiazole-6-carboxamido)ethoxy)ethyl)piperazin-1-ium chloride]
MIC (K. pneumoniae ATCC 10031; broth microdilution, 18 h): 4 µg/mL
MIC (K. pneumoniae ATCC 10031; [4]): 5.18 µM
MIC ([1]; broth microdilution, 18 h): 64 µg/mL
MIC [1, 4]: 82.9 µM
melting point: 187 to 190 °C
MIC ([2]; Escherichia coli, MG1655, read-out: Minimum Inhibitory Concentration E. coli MG# GyrB R#C): 0.65 µM
Minimum Inhibitory Concentration E. coli MG1655 GyrB R136C [2, 5]: 0.5 µg/mL
MIC ([3]; Escherichia coli, MG1655, read-out: Minimum Inhibitory Concentration E. coli MG# GyrA S83L, D87N ParC S80I, E84G): 10.4 µM
Minimum Inhibitory Concentration E. coli MG1655 GyrA S83L, D87N ParC S80I, E84G [3, 5]: 8 µg/mL
MIC (E. coli ATCC 25922; broth microdilution, 18 h): 32 µg/mL
MIC (E. coli ATCC 25922; [4]): 41.5 µM
MIC (E. coli BW25113 WT; [4]): 41.5 µM
MIC (E. coli BW25113 WT; wild-type): 32 µg/mL
MIC (A. baumannii ATCC 17978; broth microdilution, 18 h): > 64 µg/mL
MIC (A. baumannii ATCC 17978; [4]): > 82.9 µM
Minimum Inhibitory Concentration E. coli BW25113 ΔmrcB (E. coli BW25113 ΔmrcB; impaired cell-wall mutant): 32 µg/mL
Minimum Inhibitory Concentration E. coli BW25113 ΔmrcB (E. coli BW25113 ΔmrcB; [4]): (41.5 µM)
Minimum Inhibitory Concentration E. coli BW25113 ΔsurA (E. coli BW25113 ΔsurA; impaired cell-wall mutant): 16 µg/mL
Minimum Inhibitory Concentration E. coli BW25113 ΔsurA (E. coli BW25113 ΔsurA; [4]): (20.7 µM)
Minimum Inhibitory Concentration E. coli BW25113 ΔtolC (E. coli BW25113 ΔtolC; efflux pump mutant): 0.5 µg/mL
Minimum Inhibitory Concentration E. coli BW25113 ΔtolC (E. coli BW25113 ΔtolC; [4]): (0.65 µM)
Minimum Inhibitory Concentration E. coli BW25113 ΔdapF (E. coli BW25113 ΔdapF; impaired cell-wall mutant): 32 µg/mL
Minimum Inhibitory Concentration E. coli BW25113 ΔdapF (E. coli BW25113 ΔdapF; [4]): (41.5 µM)
Minimum Inhibitory Concentration E. coli BW25113 ΔacrB (E. coli BW25113 ΔacrB; efflux pump mutant): 32 µg/mL
Minimum Inhibitory Concentration E. coli BW25113 ΔacrB (E. coli BW25113 ΔacrB; [4]): (41.5 µM)
MIC (E. coli MG1655 WT; Escherichia coli, MG1655, read-out: Minimum Inhibitory Concentration E. coli MG# WT, 50 µg/mL PAβN, molar conversion in parentheses): 0.65 µM
Minimum Inhibitory Concentration E. coli MG1655 WT (E. coli MG1655 WT; [5]): 0.5 µg/mL
IC50 (E. coli DNA gyrase): 130 ± 30 nM
MIC (P. aeruginosa ATCC 27863; ATCC27863, 18 h, read-out: MIC P. aeruginosa ATCC #): > 64 µg/mL
MIC (P. aeruginosa ATCC 27863; ATCC27863, read-out: MIC P. aeruginosa ATCC #, molar conversion in parentheses, read-out: MIC P. aeruginosa ATCC 27863): > 82.9 µM
IC50 (E. coli topoisomerase IV): > 10000 nM
Inhibition of topoisomerase IV (in words) (E. coli topoisomerase IV; relaxation assay): lack of activity
